Measured values: patent US20240148664A1, “LIPID AND COMPOSITION” (SOGO PHARMACEUTICAL CO., LTD., priority 2021, published 2024)

Experiments:
[1] = Measurement of particle size, polydispersity index and zeta potential of lipid nanoparticle (Zetasizer); type: physicochemical
How it was run: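 Dialysed LNP solution diluted in ultrapure water; particle size taken as Z-average and PDI by dynamic light scattering (Zetasizer). Zeta potential measured with pH 7.4 Tris-HCl as diluent.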

[2] = system: HT1080-EGFP (human/fibrosarcoma) cells; test: Evaluation of knockdown effect (GFP assay), Cell experiment 1; type: cell-based; settings: lipid nanoparticle containing siRNA against EGFP; fluorescence intensity with control cells without lipid nanoparticle set at 100
Method: A cell experiment was carried out by using HT1080-EGFP (human/fibrosarcoma) cells in order to evaluate lipid nanoparticles encapsulating an siRNA produced by using the lipids of the Examples and the Comparative Examples. These cells are cells provided with a green fluorescent protein gene (EGFP). The expression of EGFP can be easily confirmed by measuring the fluorescence intensity of a solution in which the cells are lysed, and thus by acting lipid nanoparticles encapsulating an siRNA that suppresses the expression of EGFP and observing any decrease in fluorescence intensity, the performance of the lipid nanoparticles used can be evaluated. Hereinafter, the procedure of the cell experiment will be shown.
(§1) A. Provision of Cells • (i) A liquid medium (DMEM/Ham's F12, FBS+, P/S+) (FBS: fetal bovine serum, P/S: antibiotic) was taken out from a refrigerator and temperature-controlled in an incubator set at 37° C. • (ii) A cryotube containing the cells was taken out from a −80° C. freezer and thawed at once in an incubator set at 37° C. • (iii) A stock solution of the thawed cells was collected in a capped test tube. • (iv) The tube containing the cells was washed with the liquid medium, and the wash was also collected in the test tube. • (v) The tube was subjected to a centrifuge to precipitate the cells. • (vi) The supernatant was aspirated, and the liquid medium was added and gently tapped to disperse the cells. • (vii) A small amount of the cells-dispersed liquid medium was collected, and the number of cells was observed and counted under a microscope. • (viii) The cells were seeded in a 24-well plate such that the number of cells was 2×10^4 cells per well. For the plate for an LDH assay described later, the cells were seeded in a 96-well plate such that the number of cells was 4×10^3 cells per well. • (ix) The 24-well plate or the 96-well plate was placed in an incubator, and the cells were cultured for 24 hours under conditions of 37° C. and 5% CO2.
The produced lipid nanoparticles were introduced into cells. • (i) Fetal bovine serum (FBS) was added to a liquid medium (FBS-, P/S-) temperature-controlled as in (i) of A above, in such a way as to reach 10%. • (ii) A 24-well plate was taken out from an incubator, and the liquid medium supernatant in the 24-well plate was aspirated and washed with phosphate buffered saline (PBS). • (iii) 400 μL of the liquid medium produced in (i) above was added to the washed 24-well plate. In addition, 100 μL of an LNP solution having an adjusted concentration was added. • (iv) The 24-well plate was placed in the incubator, and the cells were cultured (for 24 hours). • (v) After 24 hours, the liquid medium supernatant in the 24-well plate was aspirated, and 500 μL of a liquid medium containing 10% FBS (FBS+/P/S+) was added. • (vi) The 24-well plate was placed in the incubator, and the cells were cultured for 24 hours under conditions of 37° C. and 5% CO2.
By carrying out a GFP assay, the EGFP expression level in cells was measured to evaluate the effect of knocking down the green fluorescent protein gene (EGFP) by lipid nanoparticles. • (i) A 24-well plate was taken out from an incubator and washed with PBS. • (ii) A 1% octylglucoside solution to which a protease inhibitor was added was added in order to disrupt cells. Stirring with a pipette lysed the cells. • (iii) The cell lysate was transferred to an Eppendorf tube and subjected to a centrifuge. • (iv) 150 μL of the supernatant was collected and added to a plate for fluorescence measurement. • (v) The fluorescence intensity was measured under conditions of an excitation wavelength of 485 nm and a fluorescence wavelength of 535 nm with a plate reader (manufactured by TECAN, Infinite M200). The fluorescence intensity was calculated with the fluorescence intensity of control cells to which no lipid nanoparticle was added set at 100.

[3] = system: HT1080-EGFP (human/fibrosarcoma) cells; test: Evaluation of toxicity: LDH assay; type: cell-based; settings: lipid nanoparticle containing siRNA; absorbance relative to control cells without lipid nanoparticle set at 1.00
Method: as §1
The introduction of lipid nanoparticles into cells for an LDH assay described later was carried out as follows. • (i) A 96-well plate was taken out from an incubator. • (ii) The liquid medium supernatant in the 96-well plate was aspirated and washed with phosphate buffered saline (PBS). • (iii) 160 μL of a liquid medium containing 10% FBS (FBS+/P/S+) was added to the washed 96-well plate. In addition, 40 μL of an LNP solution having an adjusted concentration was added. • (iv) The 96-well plate was placed in the incubator, and the cells were cultured for 24 hours under conditions of 37° C. and 5% CO2.
For Examples 1 to 9, a CCK-8 assay or an LDH assay was carried out to measure the metabolic activity of viable cells and relatively quantify the number of surviving cells to evaluate the toxicity of lipid nanoparticles.
An LDH assay was carried out by using a viable cell counting kit (DOJINDO LABORATORIES, Cytotoxicity LDH Assay Kit-WST) as follows. • (i) 20 μL of a lysis buffer was added to each of positive control wells and incubated at 37° C. for 30 minutes in an incubator. • (ii) 100 μL of the supernatant was taken from each well and transferred to a 96-well plate for measurement. • (iii) 100 μL of the reagent mixture attached to the kit was added to all the wells, and a color reaction was carried out for 30 minutes at room temperature with exclusion of light. • (iv) 50 μL of the stop solution reagent attached to the kit was added to all the wells. • (v) The 96-well plate was measured under conditions of a measurement wavelength of 490 nm and a target wavelength of 630 nm with a plate reader (manufactured by TECAN, Infinite M200) to calculate the absorbance. The absorbance was calculated with the absorbance of control cells to which no lipid nanoparticle was added set at 1.00. When the obtained value was 0.50 or less, a rating of double-circle (excellent) was given, when the obtained value was more than 0.50 and 1.0 or less, a rating of circle (good) was given, when the obtained value was more than 1.0 and less than 6.0, a rating of triangle (fair) was given, and when the obtained value was 6.0 or more, a rating of X-mark (poor) was given.

[4] = lipid nanoparticle containing siRNA, main lipid/DPPC/cholesterol=45/10/45, Z-average in ultrapure water
[5] = lipid nanoparticle containing siRNA, main lipid/DPPC/cholesterol=45/10/45, ultrapure water
[6] = lipid nanoparticle containing siRNA, pH 7.4 Tris-HCl
[7] = mRNA lipid nanoparticle for in vivo experiment, PEG-modified lipid (PEG2000-DMG 1.5 mol %) present
[8] = mRNA lipid nanoparticle for in vivo experiment, PEG-modified lipid absent

SMILES | Particle size (nm) [1, 4] [nm] | PDI [1, 5] | Zeta potential (mV) [1, 6] [mV] | PDI [1, 7] | Particle size (nm) [1, 7] [nm] | Zeta potential (mV) [1, 7] [mV] | PDI [1, 8] | Particle size (nm) [1, 8] [nm] | Zeta potential (mV) [1, 8] [mV] | GFP Assay [2] | LDH Assay [3]
CCCCCCCC/C=C\CCCCCCCCC(CCCCCCC/C=C\CCCCCCCC)OC(=O)C(CCC(=O)O)NC(=O)C(N)CCCNC(=N)N (centres unmarked) [Example 2, 4-(2-amino-5-guanidinopentanamido)-5-(((9Z,27Z)-hexatriaconta-9,27-dien-18-yl)oxy)-5-oxopentanoic acid] | 119.7 | 0.099 | 9.59 | 0.19 | 92.8 | 16.71 | 0.10 | 119.7 | 3.92 | 24 | ⊚ (When the obtained value was 0.50 or less, a rating of double-circle (excellent) was given)
CCCCCCCC/C=C\CCCCCCCCC(CCCCCCC/C=C\CCCCCCCC)OC(=O)C(NC(=O)C(N)CCCNC(=N)N)C(C)O [Example 5, (9Z,27Z)-hexatriaconta-9,27-dien-18-yl (2S)-2-((S)-2-amino-5-guanidinopentanamido)-3-hydroxybutanoate] | 109.2 | 0.084 | 15.2 |  |  |  |  |  |  | 22 | ⊚ (When the obtained value was 0.50 or less, a rating of double-circle (excellent) was given)
CCCCCCCC/C=C\CCCCCCCCC(CCCCCCC/C=C\CCCCCCCC)OC(=O)C(CC(=O)O)NC(=N)N (centres unmarked) [Comparative Example 2, 3-guanidino-4-(((9Z,27Z)-hexatriaconta-9,27-dien-18-yl)oxy)-4-oxobutanoic acid, reference compound] | 117.1 | 0.085 | −7.75 |  |  |  |  |  |  | 97 | ⊚ (When the obtained value was 0.50 or less, a rating of double-circle (excellent) was given)
CCCCCCCC/C=C\CCCCCCCCC(CCCCCCC/C=C\CCCCCCCC)OC(=O)C(CO)NC(=O)C(N)CCCNC(=N)N [Example 4, (9Z,27Z)-hexatriaconta-9,27-dien-18-yl (2S)-2-((S)-2-amino-5-guanidinopentanamido)-3-hydroxypropionate] | 103.6 | 0.101 | 15.7 |  |  |  |  |  |  | 7 | Δ (when the obtained value was more than 1.0 and less than 6.0, a rating of triangle (fair) was given)
CCCCCCCC/C=C\CCCCCCCCC(CCCCCCC/C=C\CCCCCCCC)OC(=O)[C@H](CCSC)NC(=O)[C@@H](N)CCCNC(=N)N (some centres unmarked) [Example 6, (9Z,27Z)-hexatriaconta-9,27-dien-18-yl arginylmethioninate] | 125.9 | 0.118 | 21.9 |  |  |  |  |  |  | 40 | ◯ (when the obtained value was more than 0.50 and 1.0 or less, a rating of circle (good) was given)
CCCCCCCC/C=C\CCCCCCCCC(CCCCCCC/C=C\CCCCCCCC)OC(=O)C(CC(=O)O)NC(=O)C(N)CCCNC(=N)N (centres unmarked) [Example 1, 3-(2-amino-5-guanidinopentanamido)-4-(((9Z,27Z)-hexatriaconta-9,27-dien-18-yl)oxy)-4-oxobutanoic acid] | 116.5 | 0.169 | 6.98 |  |  |  |  |  |  | 28 | ⊚ (When the obtained value was 0.50 or less, a rating of double-circle (excellent) was given)
CCCCCCCC/C=C\CCCCCCCCC(CCCCCCC/C=C\CCCCCCCC)OC(=O)C(CCC(=O)O)NC(=N)N (centres unmarked) [Comparative Example 3, 4-guanidino-5-(((9Z,27Z)-hexatriaconta-9,27-dien-18-yl)oxy)-5-oxopentanoic acid, reference compound] | 137.0 | 0.329 | −7.66 |  |  |  |  |  |  | 102 | Δ (when the obtained value was more than 1.0 and less than 6.0, a rating of triangle (fair) was given)
